{"source": "patent US20110184147A1", "about": "“ENZYME SUBSTRATE FOR LABELING OF PROTEIN” (priority 2008, published 2011)", "assay_type_in_all_cases": "biochemical, microbial", "key": {"[1]": {"molecular_target": "T1, MTG (Streptomyces mobaraensis, UniProt P81453)", "T1 construct": "purchased AJINOMOTO (supplied as a gift)", "T1 sequence (P81453 77-407)": "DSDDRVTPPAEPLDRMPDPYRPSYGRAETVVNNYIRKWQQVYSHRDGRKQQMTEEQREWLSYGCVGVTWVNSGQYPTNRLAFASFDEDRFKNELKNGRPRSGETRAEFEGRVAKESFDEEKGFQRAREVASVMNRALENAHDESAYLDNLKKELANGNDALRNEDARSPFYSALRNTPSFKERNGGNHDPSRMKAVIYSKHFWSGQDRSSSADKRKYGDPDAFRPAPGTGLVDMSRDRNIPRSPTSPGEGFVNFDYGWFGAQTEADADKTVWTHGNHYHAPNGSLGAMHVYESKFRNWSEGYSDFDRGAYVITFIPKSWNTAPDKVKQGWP", "assay": "MTG-catalyzed introduction of fluorescent substrates into NK6-AP (SDS-PAGE, fluorescent imager)", "protocol": "To perform a binding reaction, the fluorescent substrate (FITC-ε-Acp-QG, FITC-β-Ala-QG, Flc-QG, TR-β-Ala-QG or Dns-ε-Acp-QG), NK6-AP and MTG were added to 10 mM Tris-HCl (pH 8) to give respective final concentrations of 1 mM, 0.5 mg/ml and 1 U/ml and they were thoroughly agitated and the resulting solution was left to stand overnight at 4° C. For the purpose of comparison, an MTG-free sample was prepared.\nAfter the reaction, the samples were subjected to SDS-polyacrylamide gel electrophoresis (SDS-PAGE). The gel from SDS-PAGE was examined with a fluorescent imager before it was stained with Coomassie Brilliant Blue (CBB) in solution. For the sample containing Dns-ε-Acp-QG, examination was made with a transilluminator.\n(§1) A study was made using FITC-β-Ala-QG as a fluorescent substrate. The reaction conditions for introducing FITC-β-Ala-QG into NK6-AP were as follows: FITC-β-Ala-QG, NK6-AP and MTG were added to 10 mM Tris-HCl (pH 8) to give respective final concentrations of 0.1 mM, 0.5 mg/ml and 0.1 U/ml and they were thoroughly agitated at 4° C. for 0-5 hours. To trace the binding, the gel from SDS-PAGE was analyzed by a fluorescent imager.\nas §1, with “1-1000 μM,” for “0.1 mM,”, “15 minutes. Tracing on” for “0-5 hours. To trace”, “sample after” for “binding,”, “reaction” for “gel from SDS-PAGE”, “performed” for “analyzed”, “the same procedure as in Experiment 2-4.” for “a fluorescent imager.”\nDns-β-Ala-QG-biotin, NK6-AP and MTG were added to 20 mM Tris-HCl (pH 8) to give respective final concentrations of 100 μM, 0.5 mg/ml, and 1 U/ml. For the purpose of comparison, an MTG-free sample was prepared. The ingredients were thoroughly agitated and the resulting solution was left to stand overnight at 4° C. for reaction.\nAfter the reaction, the samples were subjected to SDS-polyacrylamide gel electrophoresis (SDS-PAGE). The gel from SDS-PAGE was examined with a transilluminator before it was stained with Coomassie Brilliant Blue (CBB) in solution.\nTo a 50 mM buffer whose pH was varied over the range of from 5 to 9, FITC-β-Ala-QG, NK6-AP and MTG were added to give respective final concentrations of 0.1 mM, 0.5 mg/ml, and 0.1 U/ml. These ingredients were well stirred and left to stand at 4° C. for reaction. After 6-hr or 15-minute reaction, the sample was mixed with a sample buffer and heated at 95° C. for 15 minutes to stop the reaction. Thereafter, SDS-polyacrylamide gel electrophoresis (SDS-PAGE) was applied. The gel from SDS-PAGE was stained with Coomassie Brilliant Blue (CBB) and observed with a fluorescent imager.\n(§2) To 50 mM Tris-HCl (pH 8), FITC-β-Ala-QG, NK6-AP and MTG were added to give respective final concentrations of 0.1 mM, 0.5 mg/ml, and 0.001-1 U/ml. These ingredients were well stirred and left to stand at 4° C. for reaction. The reaction was stopped and evaluation was made by the same procedures as in Experiment 2-2.\nas §2, with “FITC-β-Ala-QG-alkyne,” for “FITC-β-Ala-QG,”, “0.1” for “0.001-1”, “For the purpose of comparison, a MTG-free sample was also prepared. Both samples” for “These ingredients”"}, "[2]": {"molecular_target": "T1, MTG", "assay": "MTG-catalyzed binding reaction of fluorescent substrate with β-casein", "details": "substrate 1 mM, β-casein 0.5 mg/ml, MTG 1 U/ml, phosphate buffer pH 7, overnight 27° C.", "protocol": "To perform a binding reaction, FITC-β-Ala-QG, β-casein and GTG were added to 50 mM HEPES (5 mM NaCl, 10 mM CaCl2, pH 7.4) to give respective final concentrations of 1 mM, 0.5 mg/ml and 0.2 U/ml and the resulting mixture was left to stand overnight at 27° C. Two comparative samples were prepared; one was a GTG-free sample and the other was prepared by performing an MTG-catalyzed reaction. For the MTG-catalyzed binding reaction, FITC-β-Ala-QG, β-casein and MTG were added to a 10 mM phosphate buffer (pH 7) to give respective final concentrations of 1 mM, 0.5 mg/ml and 1 U/ml and the resulting mixture was left to stand overnight at 27° C. Tracing on the sample after the reaction was performed by the same procedure as in Experiment 2-2."}, "[3]": {"molecular_target": "T1, MTG", "assay": "MTG-catalyzed introduction of fluorescent substrates into anti-lysozyme IgG2a antibody", "details": "substrate 1 mM, mouse anti-lysozyme IgG2a 0.5 mg/ml, MTG 1 U/ml, pH 7, overnight 4° C.; reduced SDS-PAGE", "protocol": "A fluorescent substrate (FITC-ε-Acp-QG, FITC-β-Ala-QG, TR-β-Ala-QG or […]), mouse-derived anti-lysozyme IgG2a antibody (monoclonal) and MTG were added to a 10 mM phosphate buffer (pH 7) to give respective final concentrations of 1 mM, 0.5 mg/ml and 1 U/ml. For the purpose of comparison, an MTG-free sample was prepared. The ingredients were thoroughly agitated and the resulting solution was left to stand overnight at 4° C.\nAfter the reaction, the samples were subjected to SDS-PAGE. The gel from SDS-PAGE was examined with a fluorescent imager before it was stained with a CBB dye solution. For the Dns-ε-Acp-QG containing sample, examination was made with a transilluminator."}, "[4]": {"details": "NK6-AP 0.5 mg/ml, MTG 0.1 U/ml, pH 8, 4° C., 15 minutes"}}, "note": "“Also recorded” adds a separate entry of the source.", "data": [{"smiles": "NC(=O)CCC(NC(=O)CCNC(=S)Nc1ccc(-c2c3ccc(=O)cc-3oc3cc(O)ccc23)c(C(=O)O)c1)C(=O)NCC(=O)O", "note": "(stereo not drawn) [FITC-β-Ala-QG]", "values": [{"measurement": "pH range with comparable levels of fluorescent intensity (reaction saturated)", "setting": "[1]; 6-hr reaction, pH 5 to 9, substrate 0.1 mM, MTG 0.1 U/ml, 4° C.", "result": "5-8"}, {"measurement": "pH of rapid introduction into NK6-AP", "setting": "[1]; 15-min reaction, pH 5 to 9, substrate 0.1 mM, MTG 0.1 U/ml, 4° C.", "result": "rapid introduction was achieved at pH values of 6 and 8"}, {"measurement": "Maximum substrate concentration at which reaction progressed", "setting": "[1]; [4]", "result": 1, "unit": "mM"}, {"measurement": "Minimum substrate concentration at which reaction progressed and detection was possible", "setting": "[1]; [4]", "result": 1, "unit": "µM"}, {"measurement": "Degree of introduction into NK6-AP at 1 U MTG", "setting": "[1]; NK6-AP, substrate 0.1 mM, pH 8, 4° C.", "result": "did not drop"}, {"measurement": "MTG concentration at which an adequately rapid reaction proceeded", "setting": "[1]; NK6-AP, substrate 0.1 mM, pH 8, 4° C., MTG 0.001-1 U/ml", "result": 0.1, "unit": "U"}, {"measurement": "Reactivity of MTG for fluorescent substrate (introduction into NK6-AP)", "setting": "[1]; substrate 1 mM, NK6-AP 0.5 mg/ml, MTG 1 U/ml, 10 mM Tris-HCl pH 8, overnight 4° C.", "result": "served as substrates of MTG; also recorded: recognizable as a substrate of MTG"}, {"measurement": "Fluorescence intensity of MTG lane compared with GTG lane", "setting": "[2]", "result": "higher fluorescence intensity"}, {"measurement": "Reactivity of antibody with fluorescent substrate by MTG catalysis", "setting": "[3]", "result": "H chains of the antibody are modified"}]}]}
